We go through 15 molecules from ChEMBL document CHEMBL1201862, “PubChem BioAssay data set” (2004).

The term CC50 denotes the concentration giving 50% cytotoxicity. What is called IC50 is the concentration needed to halve the response being measured. Usually EC50 stands for the midpoint of the concentration-response curve. As usually defined, the AC50 is the concentration giving half of the maximal activity seen.

A short description of assay [1]: A Cell Based Secondary Assay To Explore Cytotoxicity of Compounds that Sensitize Mycobacterium Tuberculosis to Beta-Lactam Antibiotics. The assay is classed as functional.
Assay [2] concerns the target DNA dC->dU-editing enzyme APOBEC-3G (Homo sapiens, UniProt Q9HC16). Description: Dose Response confirmation of small molecule APOBEC3G DNA Deaminase Inhibitors via a fluorescence-based single-stranded DNA deaminase assay. [Related pubchem assays (depositor defined):AID493012, AID493028]. The assay is classed as functional.
The target in assay [3] is T1, Hexokinase (Trypanosoma brucei, UniProt Q38C41).
T1 sequence (Q38C41 whole entry): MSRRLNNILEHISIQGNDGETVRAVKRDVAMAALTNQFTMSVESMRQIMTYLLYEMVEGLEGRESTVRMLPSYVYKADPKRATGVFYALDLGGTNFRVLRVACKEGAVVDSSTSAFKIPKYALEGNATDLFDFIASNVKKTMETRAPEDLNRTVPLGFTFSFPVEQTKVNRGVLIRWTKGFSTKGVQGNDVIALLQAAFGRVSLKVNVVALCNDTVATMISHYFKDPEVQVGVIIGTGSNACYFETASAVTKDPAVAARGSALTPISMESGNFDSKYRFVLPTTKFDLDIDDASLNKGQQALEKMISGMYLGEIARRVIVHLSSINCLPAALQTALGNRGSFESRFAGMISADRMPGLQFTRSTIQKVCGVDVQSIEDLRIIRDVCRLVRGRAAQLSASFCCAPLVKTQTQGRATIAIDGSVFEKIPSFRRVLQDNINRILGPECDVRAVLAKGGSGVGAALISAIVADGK
The experiment in a line: Confirmation assay for inhibitors of Trypanosoma brucei hexokinase 1-Analogue-first series. [Related pubchem assays (depositor defined):AID1430, AID1632, AID2516, AID2560, AID2579, AID2600, AID449725, AID492951]. The assay is classed as functional.

The target in assay [4] is Glucose-6-phosphate 1-dehydrogenase (Homo sapiens, UniProt P11413). Description: human G6PD enzyme inhibitors, dose response, selectivity assay for P. falciparum G6PD inhibitor project, biochemical, fluorescence (AID 504792). The assay is classed as functional.
Chain of Glucose-6-phosphate 1-dehydrogenase (P11413 whole entry): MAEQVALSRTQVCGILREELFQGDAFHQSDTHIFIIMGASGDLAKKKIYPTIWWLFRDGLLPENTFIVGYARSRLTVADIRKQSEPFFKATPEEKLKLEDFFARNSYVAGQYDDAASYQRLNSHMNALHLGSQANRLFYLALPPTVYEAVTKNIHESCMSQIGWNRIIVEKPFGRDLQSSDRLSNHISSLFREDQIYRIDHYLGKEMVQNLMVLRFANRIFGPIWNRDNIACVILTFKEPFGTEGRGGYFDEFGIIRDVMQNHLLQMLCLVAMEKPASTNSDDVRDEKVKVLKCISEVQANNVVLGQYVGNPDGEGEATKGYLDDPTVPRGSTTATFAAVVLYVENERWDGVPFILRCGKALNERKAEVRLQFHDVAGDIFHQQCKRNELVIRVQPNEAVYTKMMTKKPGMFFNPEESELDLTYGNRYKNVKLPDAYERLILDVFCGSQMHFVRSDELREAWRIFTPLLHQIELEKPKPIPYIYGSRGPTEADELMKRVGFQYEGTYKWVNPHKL
Assay [5] in a line: A cytotoxicity screen of small molecule inhibitors of the PhoP region in Salmonella typhi identified in the primary screen. [Related pubchem assays: 1850, 1864, 1985 ]. The assay is classed as functional.
Assay [6] has as its target T2, Aspartyl aminopeptidase (Plasmodium falciparum 3D7, UniProt Q8I2J3).
T2 sequence (Q8I2J3 whole entry): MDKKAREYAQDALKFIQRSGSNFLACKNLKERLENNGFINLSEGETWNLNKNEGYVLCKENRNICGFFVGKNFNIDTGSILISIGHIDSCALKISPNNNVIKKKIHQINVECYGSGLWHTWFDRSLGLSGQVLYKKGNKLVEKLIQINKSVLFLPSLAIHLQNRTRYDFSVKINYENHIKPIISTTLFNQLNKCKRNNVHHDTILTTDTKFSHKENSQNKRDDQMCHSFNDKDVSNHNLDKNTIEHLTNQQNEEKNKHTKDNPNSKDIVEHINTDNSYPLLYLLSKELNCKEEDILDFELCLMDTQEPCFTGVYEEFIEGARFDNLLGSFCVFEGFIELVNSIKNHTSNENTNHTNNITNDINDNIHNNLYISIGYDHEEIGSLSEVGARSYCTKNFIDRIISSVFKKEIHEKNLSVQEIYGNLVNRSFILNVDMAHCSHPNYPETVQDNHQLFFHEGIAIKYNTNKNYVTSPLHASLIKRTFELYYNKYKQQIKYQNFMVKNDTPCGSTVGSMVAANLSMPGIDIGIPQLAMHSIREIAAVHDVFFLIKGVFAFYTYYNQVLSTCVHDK

The target in assay [7] is Procathepsin L (Homo sapiens, UniProt P07711).
Chain of Procathepsin L (P07711 whole entry): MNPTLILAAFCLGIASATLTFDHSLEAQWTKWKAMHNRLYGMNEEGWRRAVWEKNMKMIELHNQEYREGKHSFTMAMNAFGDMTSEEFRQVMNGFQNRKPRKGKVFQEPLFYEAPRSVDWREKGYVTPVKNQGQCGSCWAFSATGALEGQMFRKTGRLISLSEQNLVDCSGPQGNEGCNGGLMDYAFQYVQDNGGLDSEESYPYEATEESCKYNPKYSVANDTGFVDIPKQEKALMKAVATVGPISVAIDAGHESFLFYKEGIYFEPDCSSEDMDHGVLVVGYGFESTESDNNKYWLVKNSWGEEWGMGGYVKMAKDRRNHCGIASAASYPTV
Assay [8] concerns the target Large T antigen (Simian virus 40, UniProt P03070). The assay is classed as functional, Betapolyomavirus macacae.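 Note: Confirmatory-stage PubChem screen for compounds that inhibit SV40 T antigen.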
Assay [9] has as its target Induced myeloid leukemia cell differentiation protein Mcl-1 (Homo sapiens, UniProt Q07820). The assay is classed as functional.
A short description of assay [10]: Luminescence Cell-Based Dose Confirmation HTS to Identify Inhibitors of Polyadenylation. The assay is classed as functional.
Assay [11] in a line: Luminescence Cell-Based Dose Response to Identify Activators of 5'UTR Stem-Loop Driven Prion Protein mRNA Translation in H4-C Neuroglioblastoma Cells. [Related pubchem assays: 1829 (Project Summary), 1814 (Primary HTS)]. The assay is classed as functional.
Assay [12] in a line: Luminescence Cell-Based Dose Response HTS to Identify Activators of Luciferase Translation or Activity in H4 […] Cells. [Related pubchem assays: 1829 (Project Summary), 1814 (Primary HTS)]. The assay is classed as functional.
The test system of assay [13] is H4. The experiment in a line: Luminescence Cell-Based Dose Response HTS to Identify Activators of 5'UTR Stem-Loop Driven Prion Protein mRNA Translation in H4 Neuroglioblastoma Cells. [Related pubchem assays: 1829 (Project Summary), 1814 (Primary HTS)]. The assay is classed as functional. Particulars: Homo sapiens.
For assay [14], the system named is Vero. The experiment in a line: host cell cytotoxicity of antiviral hits, dose response, cytotoxicity control for West Nile virus antiviral project, secondary assay (AID 1650). The assay is classed as functional. As to conditions: Chlorocebus sabaeus.
Assay [15] can be described thus: Luminescence Cell-Based Dose Response to Identify Activators of Luciferase Translation or Activity in H4-C Neuroglioblastoma Cells. [Related pubchem assays: 1829 (Project Summary), 1814 (Primary HTS)]. The assay is classed as functional.
Assay [16] is described as follows: Luminescence Cell-Based Dose Confirmation to Identify Activators of 5'UTR Stem-Loop Driven Alpha-Synuclein mRNA Translation in H4 Neuroglioblastoma Cells. [Related pubchem assays: 1829 (Project Summary), 1814 (Primary HTS)]. The assay is classed as functional.
The target of assay [17] is FAD-linked sulfhydryl oxidase ALR (Homo sapiens, UniProt P55789). The experiment in a line: inhibitors of human ALR sulfhydryl oxidase, dose response, biochemical, H2O2 detection, luminescence, cherry-pick (AID 493248).
Chain of FAD-linked sulfhydryl oxidase ALR (P55789 whole entry): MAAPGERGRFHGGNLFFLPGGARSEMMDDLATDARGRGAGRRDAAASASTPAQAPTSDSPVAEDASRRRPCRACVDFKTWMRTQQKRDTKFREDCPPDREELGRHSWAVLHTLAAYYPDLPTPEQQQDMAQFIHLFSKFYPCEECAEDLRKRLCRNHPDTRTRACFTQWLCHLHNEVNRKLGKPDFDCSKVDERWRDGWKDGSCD
Assay [18] relates to Streptococcus sp. 'group A'. The experiment in a line: growth inhibition of control SK(-) GAS strain, dose response, counter-screen for streptokinase expression inhibitor project, luminescence, kanamycin, BacTiterGlo, confirmation (AID 1900). The assay is classed as functional, organism-based. A general note: A counterscreen serves to expose hits that act by an unwanted route or on another target.

Assay [19] addresses T3, Streptokinase A (Streptococcus pyogenes serotype M1, UniProt P10520).
T3 sequence (P10520 whole entry): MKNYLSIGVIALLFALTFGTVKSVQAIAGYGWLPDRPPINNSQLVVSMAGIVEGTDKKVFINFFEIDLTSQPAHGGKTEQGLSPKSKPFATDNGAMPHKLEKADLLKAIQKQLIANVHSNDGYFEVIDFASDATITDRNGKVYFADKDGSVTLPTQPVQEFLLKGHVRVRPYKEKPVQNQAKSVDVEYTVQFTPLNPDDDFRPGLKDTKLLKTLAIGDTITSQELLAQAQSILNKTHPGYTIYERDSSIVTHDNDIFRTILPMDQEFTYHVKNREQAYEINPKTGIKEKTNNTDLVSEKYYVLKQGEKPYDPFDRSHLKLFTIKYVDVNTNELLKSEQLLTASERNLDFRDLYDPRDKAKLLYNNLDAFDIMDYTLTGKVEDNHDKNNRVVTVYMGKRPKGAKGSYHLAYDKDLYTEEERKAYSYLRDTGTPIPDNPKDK
The experiment in a line: S. pyogenes streptokinase expression inhibitors, potency, dose response, plasminogen activation absorbance, OD405 (AID 1914).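 Note: secreted streptokinase activity via plasminogen activation per viability signal from cell pellet.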 The assay is classed as functional, Streptococcus pyogenes M1 GAS.

The nature of assay [20]: inhibitors of intracellular T. cruzi replication, confirmation, NIH3T3 host cells, beta-gal luminescence (AID 2044).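 Note: intracellular parasites grown in NIH/3T3 mouse fibroblasts as host cells; luminescent beta-galactosidase reporter signal from transgenic T. cruzi replicating inside host cells; inhibitors lower the luminescence signal.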 The assay is classed as functional, cell-based.
Assay [21] in a line: cytotoxicity toward NIH3T3 fibroblasts, dose response, counter-screen, cell-based, ATP luminescence, mouse fibroblasts (AID 2010).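 Note: cells exposed to compound for about 90 hours before reading.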 The assay is classed as functional.
For assay [22], the system named is Streptococcus. Description: Group A Streptococcus viability loss, dose response, counter-screen for streptokinase expression inhibitor project, luminescence, BacTiterGlo (AID 1915).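 Note: potency for reduction of bacterial viability or growth.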 The assay is classed as functional, organism-based.
Assay [23] is described as follows: THP-1 cell cytotoxicity, dose response, cytotoxicity control for non-replicating M. tuberculosis project (AID 489025). The assay is classed as functional.
Assay [24] can be described thus: HepG2 cell cytotoxicity, dose response, cytotoxicity control for non-replicating M. tuberculosis project (AID 489018). The assay is classed as functional. Particulars: Mycobacterium tuberculosis.
Assay [25] can be described thus: Vero E6 cell cytotoxicity, dose response, cytotoxicity control for non-replicating M. tuberculosis project, secondary assay (AID 492998). The assay is classed as functional, VeroE6. As to conditions: Vero C1008.
Assay [26] is described as follows: cells. The assay is classed as functional.
Assay [27] concerns INS1. Description: beta cell apoptosis inhibitors, cytokine rescue, dose response, luminescence, retest (AID 449756).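 Note: cell death triggered by IL-1 beta plus TNF-alpha plus IFN-gamma mixture; protective hits raise ATP signal compared with cytokine alone wells.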 The assay is classed as functional, cell-based. As to conditions: Rattus norvegicus, INS1.

Where “and” joins values, the source holds several entries; their conditions need not be identical. Equal entries are not always repeated. Calls of active or inactive are those of the source.

Chain of DNA dC->dU-editing enzyme APOBEC-3G (Q9HC16 whole entry): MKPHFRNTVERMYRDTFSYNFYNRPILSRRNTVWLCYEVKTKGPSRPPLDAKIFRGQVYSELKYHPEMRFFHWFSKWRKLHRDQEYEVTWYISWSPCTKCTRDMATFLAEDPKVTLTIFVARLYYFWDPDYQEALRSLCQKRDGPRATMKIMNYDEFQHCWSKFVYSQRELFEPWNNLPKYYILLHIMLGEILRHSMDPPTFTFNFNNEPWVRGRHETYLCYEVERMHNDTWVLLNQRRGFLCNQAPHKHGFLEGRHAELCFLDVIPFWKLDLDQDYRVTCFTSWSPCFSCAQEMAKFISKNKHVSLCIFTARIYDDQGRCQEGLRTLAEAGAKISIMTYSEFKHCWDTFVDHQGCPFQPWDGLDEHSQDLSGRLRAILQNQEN
Chain of Induced myeloid leukemia cell differentiation protein Mcl-1 (Q07820 whole entry): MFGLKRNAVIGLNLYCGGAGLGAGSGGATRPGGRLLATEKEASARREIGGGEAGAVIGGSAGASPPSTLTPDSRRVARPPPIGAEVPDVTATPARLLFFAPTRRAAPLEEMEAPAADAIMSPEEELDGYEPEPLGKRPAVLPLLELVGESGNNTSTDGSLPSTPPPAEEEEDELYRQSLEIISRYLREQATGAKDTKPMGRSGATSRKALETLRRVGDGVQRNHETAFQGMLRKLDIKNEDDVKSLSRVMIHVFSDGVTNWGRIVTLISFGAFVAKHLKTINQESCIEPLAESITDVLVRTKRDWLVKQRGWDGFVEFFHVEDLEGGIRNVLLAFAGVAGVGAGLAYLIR
Chain of Large T antigen (P03070 whole entry): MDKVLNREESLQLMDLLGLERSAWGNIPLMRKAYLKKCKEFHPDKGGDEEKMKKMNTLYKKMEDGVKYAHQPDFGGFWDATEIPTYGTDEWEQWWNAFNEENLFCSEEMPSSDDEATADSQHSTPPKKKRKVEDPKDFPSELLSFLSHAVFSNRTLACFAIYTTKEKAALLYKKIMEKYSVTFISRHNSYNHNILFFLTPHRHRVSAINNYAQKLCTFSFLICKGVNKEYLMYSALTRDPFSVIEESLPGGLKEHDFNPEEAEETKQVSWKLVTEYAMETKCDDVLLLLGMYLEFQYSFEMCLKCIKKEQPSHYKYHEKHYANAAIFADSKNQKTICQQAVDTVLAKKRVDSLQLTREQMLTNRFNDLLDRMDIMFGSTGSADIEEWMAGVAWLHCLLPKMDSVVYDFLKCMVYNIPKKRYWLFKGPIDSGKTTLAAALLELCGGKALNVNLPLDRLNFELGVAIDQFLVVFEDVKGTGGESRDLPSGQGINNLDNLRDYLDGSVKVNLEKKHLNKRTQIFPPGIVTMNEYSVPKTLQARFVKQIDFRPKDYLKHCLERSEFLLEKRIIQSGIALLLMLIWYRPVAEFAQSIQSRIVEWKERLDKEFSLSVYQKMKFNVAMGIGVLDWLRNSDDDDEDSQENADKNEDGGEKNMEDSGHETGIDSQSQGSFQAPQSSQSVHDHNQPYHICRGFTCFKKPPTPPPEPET

Turning to `COc1ccc([N+](=O)[O-])cc1C1NN=C(c2ccccc2O)S1` (stereo not given), the half-maximal cytotoxic concentration (CC50) in [1] is > 40 µM (active).
Turning to `S=C(c1ccc(-c2ccccc2Cl)o1)N1CCOCC1`, the IC50 in [2] is 44.6 µM (active).
Take `COc1ccc(C(=O)Nc2cc(Cl)ccc2C(=O)O)cc1`: the IC50 in assay [3] was 11.2 µM (active) and 8.23 µM (active); in assay [4], > 80 µM (inactive).
For `O=[N+]([O-])c1cc([N+](=O)[O-])c2cccnc2c1Oc1ccccc1O`, the EC50 in assay [5] is > 50 µM (active). The IC50 in assay [6] is 3.27 µM (active); in assay [7], > 59.6 µM (not active); in assay [8], 7.81 µM (active); in [9], 2.82 µM (active).
Take `O=C(NNC(=S)NC1CC2C=CC1C2)c1cccnc1` (stereo not given): the 50% effective concentration (EC50) in [10] is > 120 µM (not active).
As to `CCn1c(=N)n(CC(=O)c2ccc(Cl)c(Cl)c2)c2ccccc21`, the EC50 in assay [11] is 0.771 µM (active); in [12], < 0.1 µM (active); in [13] it was > 120 µM (not active); in assay [15], 0.474 µM (active); in [16] it was 1.18 µM (active). Also, the CC50 in [14] was 15.5 µM (active).
Consider `C=CCn1c(S)nnc1-c1cccc([N+](=O)[O-])c1`, for which, in [2], the IC50 was 8.72 µM (active). For the same molecule, the AC50 in assay [17] is 9.06 µM (active).
As to `O=C1CC(c2ccc(Cl)cc2)N2CCNC2=C1C(=O)Nc1ccccc1` (stereo not given), the EC50 in assay [5] was > 50 µM (active).
`CCN1CCN(C(=O)c2cc3cc(Cl)ccc3[nH]2)CC1`: the EC50 in assay [5] was > 50 µM (active).
As to `COCCCN=C(S)NN=C(S)Nc1ccccc1`, the IC50 in [2] was 16.4 µM (active).
As to `CC(NC(=O)c1ccc(Br)cc1)c1ccccc1` (stereo not given), the EC50 in assay [10] is > 120 µM (not active).
As for `O=C(COC(=O)Cc1ccc(S(=O)(=O)N2CCOCC2)s1)Nc1ccc2c(c1)OCO2`, the concentration giving a half-maximal response (EC50) in assay [10] is given as > 120 µM (not active).
For `Cc1ccc(OCC(=O)Nc2ccc3c4c(cccc24)CC3)c(C)c1`, the CC50 in [1] was > 40 µM (active).
`O=C(Nc1cc(Cl)ccc1C(=O)O)c1ccc2c(c1)CCC2`: the IC50 in [3] is 4.83 µM (active).
`CC(C)(C)c1cc(C(=O)N/N=C/c2ccc([N+](=O)[O-])s2)[nH]n1`: the EC50 in assay [18] was 12.3 µM (active); in assay [19] it was > 150 µM (not active); in [20], 0.15 µM (active); in assay [21], > 60 µM (not active); in assay [22], 15.8 µM (active). Besides, the CC50 in [23] was 18.9 µM (active); in assay [24] it was > 20 µM (active); in assay [25], 12 µM (active). In assay [26], the IC50 was 5.22 µM (active). For the same molecule, the AC50 in assay [27] is 6.87 µM (active).
